Here are results for 1 molecule from patent US10626107B2, “Crystal form, salt type of substituted 2-hydro-pyrazole derivative and preparation method therefor” (CHIA TAI TIANQING PHARMACEUTICAL GROUP CO., LTD., priority 2016, dated 2020).

The nature of data set [1]: Study on the polymorphs of compound WX_1 (XRPD after treatment in solvents). Format: physicochemical. The text has this:
The solution was centrifuged to obtain a precipitate, which was dried and then subjected to an XRPD detection.

Data set [2] has as its system MCF-7 breast cancer cells. In words: Inhibition assay of the A crystal form of WX_1 on MCF-7 breast cancer cell proliferation (CellTiter-Glo). Format: cell-based. Conditions: Homo sapiens, MCF7, 144 h; MCF-7 cells, 6 days. On the procedure:
RPMI 1640 medium, fetal bovine serum and penicillin/streptomycin as antibiotics were purchased from Promega (Madison, Wis.). The MCF-7 cell line was purchased from the European Collection of Authenticated Cell Cultures (ECACC). Envision MultiLabel Plate Reader (PerkinElmer).
MCF-7 cells were seeded in a black 384-well plate with 45 μL of cell suspension (containing 200 MCF-7 cells) per well. The cell plate was placed in a carbon dioxide incubator for overnight culture.
The test compounds were diluted 3 times to the 10th concentration with Bravo, i.e., diluted from 10 μM to 0.508 nM, and a duplicate-well experiment was set. The medium was added to the middle plate in an amount of 49 μL per well. The gradient-diluted compounds were transferred in an amount of 1 μL per well to the middle plate according to the corresponding positions, and the mixture was mixed evenly and transferred to the cell plate in an amount of 5 μL per well. The cell plate was incubated in a carbon dioxide incubator for 6 days.
Promega CellTiter-Glo reagent was added to the cell plate in an amount of […] per well, and incubated for 10 minutes at room temperature to stabilize the luminescence signal. Reading was performed using a PerkinElmer Envision Multilabel Plate Reader.
Background: Cellular ATP, detected with luciferase, serves as a proxy for viable cell number.

A further data set has as its target CDK6/cyclin D1 (Homo sapiens (Human), UniProt Q00534). The data set can be described thus: CDK6/cyclin D1 enzymatic activity (Lance Ultra). Format: biochemical. The following applies: 180 minutes. On the procedure: The components of the buffer included 50 mM hydroxyethylpiperazine ethanesulfonic acid solution (pH 7.5), 1 mM ethylenediaminetetraacetic acid, 10 mM magnesium chloride, 0.01% Brij-35, and 2 mM dithiothreitol.

CDK6/cyclin D1, sequence (Q00534 whole entry): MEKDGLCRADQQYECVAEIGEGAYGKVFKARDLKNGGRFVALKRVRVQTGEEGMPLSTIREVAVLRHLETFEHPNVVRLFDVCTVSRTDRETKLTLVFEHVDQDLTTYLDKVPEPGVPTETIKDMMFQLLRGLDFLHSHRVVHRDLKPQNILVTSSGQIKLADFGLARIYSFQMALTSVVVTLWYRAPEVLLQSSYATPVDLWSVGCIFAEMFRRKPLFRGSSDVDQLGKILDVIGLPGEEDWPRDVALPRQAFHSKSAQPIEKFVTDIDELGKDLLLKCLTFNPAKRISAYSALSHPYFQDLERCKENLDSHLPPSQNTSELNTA
CDK6/cyclin D1, sequence (P24385 whole entry partner): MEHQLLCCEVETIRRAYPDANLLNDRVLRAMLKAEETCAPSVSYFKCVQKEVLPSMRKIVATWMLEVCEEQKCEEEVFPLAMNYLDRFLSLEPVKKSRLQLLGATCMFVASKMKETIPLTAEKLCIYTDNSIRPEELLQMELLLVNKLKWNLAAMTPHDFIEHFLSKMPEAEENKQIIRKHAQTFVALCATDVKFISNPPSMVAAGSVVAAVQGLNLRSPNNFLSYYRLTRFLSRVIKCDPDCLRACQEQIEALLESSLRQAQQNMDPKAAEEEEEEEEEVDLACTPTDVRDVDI

Regarding `CC(C)c1c2cc(-c3nc(Nc4ccc(N5CCNCC5)cn4)ncc3F)ccc2nn1C.O=C(O)/C=C\C(=O)O` [A crystal form of compound WX_1], the Crystal form entry in data set [1] (acetone, 40° C. in the dark for 2 days) is “A crystal form”; in data set [1] (acetone-water (1:2), Volatilization of supernatant), “amorphous (Volatilization)”; in data set [1] (ethanol, 40° C. in the dark for 2 days), “A crystal form”; in data set [1] (ethanol-water (3:1), Volatilization of supernatant), “amorphous (Volatilization)”; in data set [1] (ethyl acetate, 40° C. in the dark for 2 days) it was “A crystal form”; in data set [1] (isopropanol, 40° C. in the dark for 2 days) it was “A crystal form”. The Crystal form entry was “A crystal form” in data set [1] (isopropanol-water (1:1), Volatilization of supernatant); “A crystal form” in data set [1] (methanol, 40° C. in the dark for 2 days); “A crystal form” in data set [1] (methanol-water (3:1), 40° C. in the dark for 2 days). For the same molecule, the 50% inhibitory concentration (IC50) (usually the point on the concentration scale where inhibition reaches its midpoint) is 70 nM in data set [2] and less than 0.8 nM against CDK6/cyclin D1.
